Laboratory results published in ChEMBL document CHEMBL1201862, “PubChem BioAssay data set” (2004).
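Protocol summary: plate cells (96-well), add compound at 5 concentrations, incubate 48 h, interpolate endpoints linearly. Here, GI50 denotes the concentration required for 50% inhibition of growth.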 Calls of active or inactive are those of the source. Rule as the data show it: active = GI50 up to about 1.1 µM and inactive = higher.

Experiments:
Assay in all cases: DTP human tumour cell line panel, 48 h
SNB-75 = system: SNB-75
MCF7 = system: MCF7
HT-29 = system: HT-29
KM12 = system: KM12
U-251 = system: U-251
HCT-116 = system: HCT-116
HOP-62 = system: HOP-62
MDA-MB-435 = system: MDA-MB-435
OVCAR-8 = system: OVCAR-8
UACC-62 = system: UACC-62
MOLT-4 = system: MOLT-4
SK-OV-3 = system: SK-OV-3
NCI-H460 = system: NCI-H460
NCI-H23 = system: NCI-H23
MDA-N = system: MDA-N
PC-3 = system: PC-3
ACHN = system: ACHN
786-0 = system: 786-0
M14 = system: M14
Malme-3M = system: Malme-3M

Nc1cc(N2CCOCC2)nc(=O)n1-c1ccc(Cl)cc1
GI50 (SNB-75): > 100 µM (inactive) | GI50 (MCF7): > 100 µM (inactive) | GI50 (HT-29): > 100 µM (inactive) | GI50 (KM12): > 100 µM (inactive) | GI50 (U-251): > 100 µM (inactive) | GI50 (HCT-116): > 100 µM (inactive) | GI50 (HOP-62): > 100 µM (inactive) | GI50 (MDA-MB-435): > 100 µM (inactive) | GI50 (OVCAR-8): > 100 µM (inactive) | GI50 (UACC-62): > 100 µM (inactive) | GI50 (MOLT-4): > 100 µM (inactive) | GI50 (SK-OV-3): > 100 µM (inactive) | GI50 (NCI-H460): > 100 µM (inactive) | GI50 (NCI-H23): > 100 µM (inactive) | GI50 (MDA-N): > 100 µM (inactive) | GI50 (PC-3): > 100 µM (inactive) | GI50 (ACHN): > 100 µM (inactive) | GI50 (786-0): > 100 µM (inactive) | GI50 (M14): > 100 µM (inactive)

CCCc1c(O)c(=O)c2c(OC)cc(OC)c3c4c(OC)cc(OC)c5c(=O)c(O)c(CCC)c(c1c23)c54
GI50 (SNB-75): 0.183 µM (active) | GI50 (MCF7): 0.403 µM (active) | GI50 (HT-29): 0.729 µM (active) | GI50 (KM12): 0.458 µM (active) | GI50 (U-251): 0.415 µM (active) | GI50 (HCT-116): 0.299 µM (active) | GI50 (HOP-62): 0.543 µM (active) | GI50 (MDA-MB-435): 0.371 µM (active) | GI50 (OVCAR-8): 0.513 µM (active) | GI50 (UACC-62): 0.396 µM (active) | GI50 (MOLT-4): 0.0883 µM (active) | GI50 (SK-OV-3): 0.342 µM (active) | GI50 (NCI-H460): 0.301 µM (active) | GI50 (NCI-H23): 0.474 µM (active) | GI50 (MDA-N): 0.425 µM (active) | GI50 (PC-3): 0.443 µM (active) | GI50 (ACHN): 0.617 µM (active) | GI50 (786-0): 0.676 µM (active) | GI50 (M14): 0.755 µM (active)

CC(=O)Nc1ccc2cc(C#N)c(=O)[nH]c2n1
GI50 (SNB-75): > 100 µM (inactive) | GI50 (MCF7): > 100 µM (inactive) | GI50 (Malme-3M): > 100 µM (inactive) | GI50 (KM12): 64.3 µM (inactive) | GI50 (U-251): 81.3 µM (inactive) | GI50 (HCT-116): > 100 µM (inactive) | GI50 (HOP-62): > 100 µM (inactive) | GI50 (MDA-MB-435): > 100 µM (inactive) | GI50 (OVCAR-8): > 100 µM (inactive) | GI50 (MOLT-4): > 100 µM (inactive) | GI50 (SK-OV-3): > 100 µM (inactive) | GI50 (NCI-H460): > 100 µM (inactive) | GI50 (NCI-H23): > 100 µM (inactive) | GI50 (MDA-N): > 100 µM (inactive) | GI50 (PC-3): > 100 µM (inactive) | GI50 (ACHN): > 100 µM (inactive) | GI50 (786-0): > 100 µM (inactive) | GI50 (M14): > 100 µM (inactive)

N#CSc1[nH]cnc1C(N)=O
GI50 (SNB-75): > 100 µM (inactive) | GI50 (HT-29): > 100 µM (inactive) | GI50 (Malme-3M): 17.4 µM (inactive) | GI50 (KM12): > 100 µM (inactive) | GI50 (U-251): > 95.9 µM (inactive) | GI50 (HCT-116): 60 µM (inactive) | GI50 (HOP-62): > 100 µM (inactive) | GI50 (MDA-MB-435): > 100 µM (inactive) | GI50 (OVCAR-8): > 100 µM (inactive) | GI50 (UACC-62): 79.6 µM (inactive) | GI50 (MOLT-4): > 10 µM (inactive) | GI50 (SK-OV-3): > 100 µM (inactive) | GI50 (NCI-H460): > 100 µM (inactive) | GI50 (NCI-H23): > 100 µM (inactive) | GI50 (MDA-N): 22.1 µM (inactive) | GI50 (PC-3): > 100 µM (inactive) | GI50 (ACHN): > 100 µM (inactive) | GI50 (786-0): 40.9 µM (inactive) | GI50 (M14): 62.7 µM (inactive)

NC1(c2cc3ccccc3s2)CCCCCC1
GI50 (SNB-75): 11.1 µM (inactive) | GI50 (MCF7): 16.1 µM (inactive) | GI50 (HT-29): 14.2 µM (inactive) | GI50 (KM12): 16 µM (inactive) | GI50 (U-251): 15.7 µM (inactive) | GI50 (HCT-116): 16.1 µM (inactive) | GI50 (HOP-62): 14.6 µM (inactive) | GI50 (MDA-MB-435): 16.1 µM (inactive) | GI50 (OVCAR-8): 17.3 µM (inactive) | GI50 (UACC-62): 18 µM (inactive) | GI50 (MOLT-4): 14.1 µM (inactive) | GI50 (SK-OV-3): 17.1 µM (inactive) | GI50 (NCI-H460): 15 µM (inactive) | GI50 (NCI-H23): 17.3 µM (inactive) | GI50 (MDA-N): 16.6 µM (inactive) | GI50 (PC-3): 11.7 µM (inactive) | GI50 (ACHN): 19.3 µM (inactive) | GI50 (786-0): 15.5 µM (inactive) | GI50 (M14): 18.8 µM (inactive)

COC(=O)C1C2C=CC(C2)N1S(=O)(=O)c1ccccc1 (stereo unspecified)
GI50 (MCF7): > 100 µM (inactive) | GI50 (HT-29): > 100 µM (inactive) | GI50 (Malme-3M): > 100 µM (inactive) | GI50 (KM12): > 100 µM (inactive) | GI50 (U-251): > 100 µM (inactive) | GI50 (HCT-116): > 100 µM (inactive) | GI50 (HOP-62): > 100 µM (inactive) | GI50 (MDA-MB-435): > 100 µM (inactive) | GI50 (OVCAR-8): > 100 µM (inactive) | GI50 (UACC-62): > 100 µM (inactive) | GI50 (MOLT-4): > 100 µM (inactive) | GI50 (SK-OV-3): > 100 µM (inactive) | GI50 (NCI-H460): > 100 µM (inactive) | GI50 (NCI-H23): > 100 µM (inactive) | GI50 (MDA-N): > 100 µM (inactive) | GI50 (PC-3): > 100 µM (inactive) | GI50 (ACHN): > 100 µM (inactive) | GI50 (786-0): > 100 µM (inactive) | GI50 (M14): > 100 µM (inactive)

COc1cc2c(c(OC)c1)C(C)=NC(C)C2 (stereo unspecified)
GI50 (MCF7): > 100 µM (inactive) | GI50 (HT-29): > 100 µM (inactive) | GI50 (Malme-3M): > 100 µM (inactive) | GI50 (KM12): > 100 µM (inactive) | GI50 (HCT-116): 51.2 µM (inactive) | GI50 (HOP-62): > 100 µM (inactive) | GI50 (MDA-MB-435): > 100 µM (inactive) | GI50 (OVCAR-8): > 100 µM (inactive) | GI50 (UACC-62): > 100 µM (inactive) | GI50 (MOLT-4): > 100 µM (inactive) | GI50 (SK-OV-3): > 100 µM (inactive) | GI50 (NCI-H460): > 100 µM (inactive) | GI50 (NCI-H23): > 100 µM (inactive) | GI50 (MDA-N): > 100 µM (inactive) | GI50 (PC-3): > 100 µM (inactive) | GI50 (ACHN): > 100 µM (inactive) | GI50 (786-0): > 100 µM (inactive) | GI50 (M14): > 100 µM (inactive)
